Results reported in US20190101533A1, “ANIMAL MODEL FOR STUDYING ZCCHC6 IN BONE DISEASE AND DEVELOPMENT” (Northeast Ohio Medical University, priority 2016, published 2019).

Test system: human OA chondrocytes
Assay: IL-1β stimulation of human OA chondrocytes: ZCCHC6, ZCCHC11 and IL-6 expression (TaqMan, ELISA, Western immunoblotting)
Assay type: cell-based
Protocol: Chondrocytes were derived by enzymatic digestion of human cartilage obtained from OA patients (n=14) undergoing knee joint replacement. Chondrocytes were stimulated with IL-1β (5 ng/ml) or treated with Actinomycin D (5 μg/ml) or NFκB inhibitor SC514 (75 μM) or JNK inhibitor (25 μM). Total RNA from grounded cartilage and from chondrocytes was purified using Qiagen RNeasy kit (Qiagen). Reverse transcription was performed using the Quantitect Reverse Transcription kit and the ZCCHC6 or IL-6 mRNA was quantified using TaqMan assays. SiRNA-mediated depletion of ZCCHC6 in human chondrocytes was used to study the effect on inflammatory cytokine expression using a cytokine array (Ray Biotech). Protein expression of IL-6 was studied using Western immunoblotting and quantified by ELISA in culture supernatants. Results were derived using Sigma Plot 12.3 package and p<0.05 was considered significant.
We next determined whether IL-1β induces expression of IL-6 correlates with the expression of ZCCHC6 in human OA chondrocytes. Human OA chondrocytes were cultured and treated with IL-1β as above and the mRNA expression of IL-6 was quantified by TaqMan assay and secreted IL-6 was quantified using an ELISA kit specific for human IL-6 (R&D Systems, Catalog No. D0650, sensitivity of 2.17 pg IL-6/ml). ZCCHC6 protein expression was determined by Western immunoblotting using an antibody specific for the N-terminus of the protein (Santa Cruz, sc-137947).

[1] = human OA chondrocytes stimulated with IL-1β (5 ng/ml) for 24 h

IL-1β: major cytokine involved in cartilage catabolism in osteoarthritis; used to stimulate chondrocytes
expression of ZCCHC6 protein (Western immunoblotting) [1]: highly induced | secreted IL-6 in the culture medium (ELISA) [1]: secreted large amounts of IL-6 | expression of ZCCHC11 (human chondrocytes treated with IL-1β): marginally upregulated
